Assay results published in US5478816A, “Liquid vitamin formulations containing vitamin D esters” (Bristol-Myers Squibb Company, priority 1993, dated 1995).
Where “and” joins values, the source holds several entries; their conditions need not be identical. Equal entries are not always repeated. Where two headings read alike, the source gives them in different places.

Test: Short-term stability of vitamin D3 and vitamin D3 palmitate in liquid vitamin formulations at 40° C. (HPLC assay)
Format: physicochemical
Conditions: 40° C.; for half-life: liquid vitamin formulation, first order fit of 16 weeks data, read-out: Time in Weeks for 50% Degradation (T50)
Description: In addition to the above, the vitamin formulation contains flavorants, stabilizer of vitamins, and about 1.0% polysorbate 80 as surfactant. As appreciated by the skilled artisan, appropriate overages of vitamins are included in order to assure meeting the label claims. The example composition contains 1.86:1 ratio by weight of glycerine to water. The pH is 5.0 which is adjusted by using an appropriate ratio of ascorbic acid to sodium ascorbate.
Vitamin D was analyzed by a HPLC assay as described by Matthew G. Sliva, et al., "Reversed-Phase Liquid Chromatographic Determination of Vitamin D in Infant Formulas and Enteral Nutritionals," J Assoc. Off. Anal. Chem., 75, 566, 1992, except that saponification conditions of 70° C. for 40 minutes were employed.
Stability of vitamins D3 and D3 palmitate were compared in various vitamin formulations containing different amounts of water and glycerin and at different pHs. The other ingredients and method of pH adjustment were as described in Example 1. The results are in Tables 2-5. Each batch number represents a different liquid vitamin formulation. The amount of glycerin varied between 650 and 850 mg/ml, depending upon the amount of water. "Vit" represents vitamin, "Desc." represents description,"Vit D3" represents vitamin D3, and "Vit D3P" or "D3 P" represents vitamin D3 palmitate. Table 1 lists the half-life (T50) values, i.e., time to degrade to 50% of the starting concentration of vitamins D3 and D3 palmitate at 40° C., These T50 values were calculated by fitting the data to first order degradation rate.

C=C1CC[C@H](O)C/C1=C/C=C1\CCC[C@]2(C)[C@@H]([C@H](C)CCCC(C)C)CC[C@@H]12 [Vitamin D3, vitamin D3]
half-life (pH 3.2, pH 3.2, 252 mg/ml water): 220 days
half-life (pH 3.2, pH 3.2, 390 mg/ml water): 73.5 days
half-life (pH 4.2, pH 4.2, 252 mg/ml water): 105 days
half-life (pH 4.2, pH 4.2, 390 mg/ml water): 44.8 days
half-life (pH 5, pH 5.0, 252 mg/ml water): 117 days
half-life (pH 5, pH 5.0, 320 mg/ml water): 86.8 days
half-life (pH 5, pH 5.0, 390 mg/ml water): 40.6 days
half-life (pH 5, pH 5.0, 435 mg/ml water): 39.9 days
half-life (pH 5.6, pH 5.6, 252 mg/ml water): 146 days
half-life (pH 5.6, pH 5.6, 390 mg/ml water): 44.1 days
Vitamin D content on storage (pH 3.2, 252 mg/ml water, age 0 weeks, Batch #1 (D3), #2 (D3 P)): 787 IU/ml and 789 IU/ml
Vitamin D content on storage (pH 3.2, 252 mg/ml water, age 1 week, Batch #1 (D3), #2 (D3 P)): 714 IU/ml and 724 IU/ml
Vitamin D content on storage (pH 3.2, 252 mg/ml water, age 2 weeks, Batch #1 (D3), #2 (D3 P)): 718 IU/ml and 691 IU/ml
Vitamin D content on storage (pH 3.2, 252 mg/ml water, age 4 weeks, Batch #1 (D3), #2 (D3 P)): 720 IU/ml and 713 IU/ml
Vitamin D content on storage (pH 3.2, 252 mg/ml water, age 6 weeks, Batch #1 (D3), #2 (D3 P)): 656 IU/ml and 628 IU/ml
Vitamin D content on storage (pH 3.2, 252 mg/ml water, age 8 weeks, Batch #1 (D3), #2 (D3 P)): 658 IU/ml and 634 IU/ml
Vitamin D content on storage (pH 3.2, 252 mg/ml water, age 12 weeks, Batch #1 (D3), #2 (D3 P)): 514 IU/ml and 586 IU/ml
Vitamin D content on storage (pH 3.2, 252 mg/ml water, age 16 weeks, Batch #1 (D3), #2 (D3 P)): 559 IU/ml and 542 IU/ml
Vitamin D content on storage (pH 3.2, 390 mg/ml water, age 0 weeks, Batch #3 (D3), #4 (D3 P)): 445 IU/ml and 447 IU/ml
Vitamin D content on storage (pH 3.2, 390 mg/ml water, age 1 week, Batch #3 (D3), #4 (D3 P)): 429 IU/ml
Vitamin D content on storage (pH 3.2, 390 mg/ml water, age 2 weeks, Batch #3 (D3), #4 (D3 P)): 392 IU/ml and 399 IU/ml
Vitamin D content on storage (pH 3.2, 390 mg/ml water, age 4 weeks, Batch #3 (D3), #4 (D3 P)): 359 IU/ml and 369 IU/ml
Vitamin D content on storage (pH 3.2, 390 mg/ml water, age 8 weeks, Batch #3 (D3), #4 (D3 P)): 282 IU/ml and 271 IU/ml
Vitamin D content on storage (pH 3.2, 390 mg/ml water, age 12 weeks, Batch #3 (D3), #4 (D3 P)): 207 IU/ml and 211 IU/ml
Vitamin D content on storage (pH 3.2, 390 mg/ml water, age 16 weeks, Batch #3 (D3), #4 (D3 P)): 160 IU/ml and 149 IU/ml
Vitamin D content on storage (pH 4.2, 252 mg/ml water, age 0 weeks, Batch #5 (D3), #6 (D3 P)): 450 IU/ml
Vitamin D content on storage (pH 4.2, 252 mg/ml water, age 1 week, Batch #5 (D3), #6 (D3 P)): 440 IU/ml and 445 IU/ml
Vitamin D content on storage (pH 4.2, 252 mg/ml water, age 2 weeks, Batch #5 (D3), #6 (D3 P)): 422 IU/ml and 425 IU/ml
Vitamin D content on storage (pH 4.2, 252 mg/ml water, age 4 weeks, Batch #5 (D3), #6 (D3 P)): 364 IU/ml and 371 IU/ml
Vitamin D content on storage (pH 4.2, 252 mg/ml water, age 8 weeks, Batch #5 (D3), #6 (D3 P)): 331 IU/ml and 315 IU/ml
Vitamin D content on storage (pH 4.2, 252 mg/ml water, age 12 weeks, Batch #5 (D3), #6 (D3 P)): 255 IU/ml and 267 IU/ml
Vitamin D content on storage (pH 4.2, 252 mg/ml water, age 16 weeks, Batch #5 (D3), #6 (D3 P)): 198 IU/ml and 224 IU/ml
Vitamin D content on storage (pH 4.2, 390 mg/ml water, age 0 weeks, Batch #7 (D3), #8 (D3 P)): 451 IU/ml and 448 IU/ml
Vitamin D content on storage (pH 4.2, 390 mg/ml water, age 1 week, Batch #7 (D3), #8 (D3 P)): 420 IU/ml and 418 IU/ml
Vitamin D content on storage (pH 4.2, 390 mg/ml water, age 2 weeks, Batch #7 (D3), #8 (D3 P)): 357 IU/ml and 360 IU/ml
Vitamin D content on storage (pH 4.2, 390 mg/ml water, age 4 weeks, Batch #7 (D3), #8 (D3 P)): 301 IU/ml and 299 IU/ml
Vitamin D content on storage (pH 4.2, 390 mg/ml water, age 8 weeks, Batch #7 (D3), #8 (D3 P)): 181 IU/ml and 178 IU/ml
Vitamin D content on storage (pH 4.2, 390 mg/ml water, age 12 weeks, Batch #7 (D3), #8 (D3 P)): 109 IU/ml and 124 IU/ml
Vitamin D content on storage (pH 4.2, 390 mg/ml water, age 16 weeks, Batch #7 (D3), #8 (D3 P)): 91.7 IU/ml and 76.1 IU/ml
Vitamin D content on storage (pH 5.0, 252 mg/ml water, age 0 weeks, Batch #9 (D3), #10 (D3 P)): 840 IU/ml and 851 IU/ml
Vitamin D content on storage (pH 5.0, 252 mg/ml water, age 1 week, Batch #9 (D3), #10 (D3 P)): 791 IU/ml and 793 IU/ml
Vitamin D content on storage (pH 5.0, 252 mg/ml water, age 4 weeks, Batch #9 (D3), #10 (D3 P)): 720 IU/ml and 700 IU/ml
Vitamin D content on storage (pH 5.0, 252 mg/ml water, age 8 weeks, Batch #9 (D3), #10 (D3 P)): 583 IU/ml and 590 IU/ml
Vitamin D content on storage (pH 5.0, 252 mg/ml water, age 12 weeks, Batch #9 (D3), #10 (D3 P)): 478 IU/ml and 482 IU/ml
Vitamin D content on storage (pH 5.0, 252 mg/ml water, age 16 weeks, Batch #9 (D3), #10 (D3 P)): 460 IU/ml and 430 IU/ml
Vitamin D content on storage (pH 5.0, 390 mg/ml water (so in the source), age 0 weeks, Batch #11 (D3), #12 (D3 P)): 454 IU/ml and 449 IU/ml
Vitamin D content on storage (pH 5.0, 390 mg/ml water (so in the source), age 1 week, Batch #11 (D3), #12 (D3 P)): 432 IU/ml and 423 IU/ml
Vitamin D content on storage (pH 5.0, 390 mg/ml water (so in the source), age 2 weeks, Batch #11 (D3), #12 (D3 P)): 424 IU/ml and 426 IU/ml
Vitamin D content on storage (pH 5.0, 390 mg/ml water (so in the source), age 4 weeks, Batch #11 (D3), #12 (D3 P)): 377 IU/ml and 371 IU/ml
Vitamin D content on storage (pH 5.0, 390 mg/ml water (so in the source), age 8 weeks, Batch #11 (D3), #12 (D3 P)): 291 IU/ml and 281 IU/ml
Vitamin D content on storage (pH 5.0, 390 mg/ml water (so in the source), age 12 weeks, Batch #11 (D3), #12 (D3 P)): 230 IU/ml and 237 IU/ml
Vitamin D content on storage (pH 5.0, 390 mg/ml water (so in the source), age 16 weeks, Batch #11 (D3), #12 (D3 P)): 196 IU/ml and 182 IU/ml
Vitamin D content on storage (pH 5.0, 390 mg/ml water, age 0 weeks, Batch #13 (D3), #14 (D3 P)): 453 IU/ml and 452 IU/ml
Vitamin D content on storage (pH 5.0, 390 mg/ml water, age 1 week, Batch #13 (D3), #14 (D3 P)): 413 IU/ml and 410 IU/ml
Vitamin D content on storage (pH 5.0, 390 mg/ml water, age 2 weeks, Batch #13 (D3), #14 (D3 P)): 363 IU/ml and 356 IU/ml
Vitamin D content on storage (pH 5.0, 390 mg/ml water, age 4 weeks, Batch #13 (D3), #14 (D3 P)): 298 IU/ml and 305 IU/ml
Vitamin D content on storage (pH 5.0, 390 mg/ml water, age 8 weeks, Batch #13 (D3), #14 (D3 P)): 166 IU/ml and 168 IU/ml
Vitamin D content on storage (pH 5.0, 435 mg/ml water, age 0 weeks, Batch #15 (D3), #16 (D3 P)): 450 IU/ml and 453 IU/ml
Vitamin D content on storage (pH 5.0, 435 mg/ml water, age 1 week, Batch #15 (D3), #16 (D3 P)): 400 IU/ml and 426 IU/ml
Vitamin D content on storage (pH 5.0, 435 mg/ml water, age 2 weeks, Batch #15 (D3), #16 (D3 P)): 370 IU/ml
Vitamin D content on storage (pH 5.0, 435 mg/ml water, age 4 weeks, Batch #15 (D3), #16 (D3 P)): 285 IU/ml and 291 IU/ml
Vitamin D content on storage (pH 5.0, 435 mg/ml water, age 8 weeks, Batch #15 (D3), #16 (D3 P)): 187 IU/ml
